What follows are molecules tested against PDE10 from pig striatum (Sus scrofa, UniProt A0A287B941) (assay: Inhibition of PDE10 from pig striatum ([3H]-cAMP SPA)). Conditions: Table 8; read-out: PDE10 pig IC50.
Format: biochemical
Experimental: Phosphodiesterase isoenzyme 10 (PDE10) activity was determined in preparations of human recombinant PDE10A and PDE10 from pig striatum, respectively.
Striatum from male hybrid pigs (150 kg) were collected and frozen at −70° C.
At the day of preparation 0.5 g striatum was homogenised in 10 ml 50 mM Tris/Mg-buffer at 4° C. and centrifuged for one hour at 100000 g. The supernatant was removed and the pellet was resuspended in the same buffer, but containing 1% Triton and incubated for 45 min at 4° C. The membrane fraction was applied onto a 5 ml Hi Trap™ QHP column at the Akta-FPLC. After washing the column the bound PDE protein was eluted with an increasing sodium chloride gradient (O mM-500 mM sodium chloride) in 50 mM Tris/Mg-buffer at 4° C. in the presence of 1% Triton. […] The fractions with PDE10-activity were pooled and frozen in aliquots until use at −20° C.
(§1) PDE10 activity was determined in a one step procedure in microtiterplates. […] Nonspecific activity was tested without the enzyme. The reaction was initiated by addition of the substrate solution and was carried out at 37° C. for 30 minutes. Enzymatic activity was stopped by addition of 25 μl YSi-SPA-beads (Amersham-Pharmacia). One hour later the mixture was measured in a liquid scintillation counter for microtiterplates (Microbeta Trilux). To pipette the incubation mixture a robot Biomek (Fa. Beckman) is used. […] For determination of IC50 values the Hill-plot, 2-parameter-model, was used.
The phosphodiesterase isoenzyme 10 (PDE10) activity was determined in preparations of rat, pig and guinea pig striatum respectively. Striatum from male Wistar rats (180-200 g), male hybrid pigs (150 kg) and male guinea pigs (CRL (HA), 500 g) respectively were collected and frozen at −70° C.
At the day of preparation 0.5 g striatum was homogenized in 10 ml 50 mM Tris/Mg-buffer at 4° C. and centrifuged for one hour at 100000 g. The supernatant is called the cytosolic fraction and was removed and stored on ice. The pellet was resuspended in the same buffer, but containing 1% Triton and incubated for 45 min at 4° C. Both fractions were independently applied onto a 5 ml Hi Trap™ QHP column at the Akta-FPLC. After washing the columns the bound PDE protein was eluted with an increasing sodium chloride gradient (0 mM-500 mM sodium chloride) in 50 mM Tris/Mg-buffer at 4° C. for the cytosolic fraction and in the presence of 1% Triton for the membrane fraction. […] The fractions with PDE10-activity were pooled and frozen in aliquots until use at −20° C.
as §1, with “YSi-SPA beads” for “YSi-SPA-beads”
`COc1cccc(-c2nc(C)c3c(C)nc4ccc(OC)nc4n23)c1` [Example 62, 2-Methoxy-9-(3-methoxyphenyl)-6,7-dimethylimidazo[1,5-a]pyrido[3,2-e]pyrazine] showed an IC50 of less than 10 nM. `COc1ccc2nc(C)c3c(C)nc(-c4cccc(OC(F)(F)F)c4)n3c2n1` [Example 63, 2-Methoxy-6,7-dimethyl-9-[3-(trifluoromethoxy)phenyl]imidazo[1,5-a]pyrido[3,2-e]pyrazine] was tested, and the IC50 was 10 to 100 nM. `COc1ccc2nc(C)c3c(C)nc(-c4ccc(OC(F)(F)F)cc4)n3c2n1` [Example 64, 2-Methoxy-6,7-dimethyl-9-[4-(trifluoromethoxy)phenyl]imidazo[1,5-a]pyrido[3,2-e]pyrazine] was tested, and the IC50 was 10 to 100 nM. `COc1ccc2nc(C)c3c(C)nc(-c4cccc(C)c4)n3c2n1` [Example 65, 2-Methoxy-6,7-dimethyl-9-(3-methylphenyl)imidazo[1,5-a]pyrido[3,2-e]pyrazine] gave an IC50 of less than 10 nM. `COc1ccc2nc(C)c3c(C)nc(-c4cccc(C(F)(F)F)c4)n3c2n1` [Example 66, 2-Methoxy-6,7-dimethyl-9-[3-(trifluoromethyl)phenyl]imidazo[1,5-a]pyrido[3,2-e]pyrazine] gave an IC50 of 10 to 100 nM. Work on `COc1ccc2nc(C)c3c(C)nc(-c4ccc(C(F)(F)F)cc4)n3c2n1` [Example 67, 2-Methoxy-6,7-dimethyl-9-[4-(trifluoromethyl)phenyl]imidazo[1,5-a]pyrido[3,2-e]pyrazine] yielded an IC50 of 10 to 100 nM. Work on `COc1ccc2nc(C)c3c(C)nc(-c4cccs4)n3c2n1` [Example 68, 2-Methoxy-6,7-dimethyl-9-(2-thienyl)imidazo[1,5-a]pyrido[3,2-e]pyrazine] yielded an IC50 of 10 to 100 nM. With `COc1ccc2nc(C)c3c(C)nc(-c4cscc4C)n3c2n1` [Example 69, 2-Methoxy-6,7-dimethyl-9-(4-methyl-3-thienyl)imidazo[1,5-a]pyrido[3,2-e]pyrazine] the IC50 was less than 10 nM. Molecule `COc1ccc2nc(C)c3c(C)nc(-c4ccccc4-c4ccccc4)n3c2n1` [Example 70, 9-Biphenyl-2-yl-2-methoxy-6,7-dimethylimidazo[1,5-a]pyrido[3,2-e]pyrazine] has an IC50 of 10 to 100 nM. With `COc1ccc2nc(C)c3c(C)nc(-c4cccc(-c5ccccc5)c4)n3c2n1` [Example 71, 9-Biphenyl-3-yl-2-methoxy-6,7-dimethylimidazo[1,5-a]pyrido[3,2-e]pyrazine] the IC50 was 10 to 100 nM. In the case of `COc1ccc2nc(C)c3c(C)nc(-c4ccc(-c5ccccc5)cc4)n3c2n1` [Example 72, 9-Biphenyl-4-yl-2-methoxy-6,7-dimethylimidazo[1,5-a]pyrido[3,2-e]pyrazine], the IC50 is reported as greater than 100 nM. `COc1ccc2nc(C)c3c(C)nc(-c4cccc(C#N)c4)n3c2n1` [Example 73, 3-(2-Methoxy-6,7-dimethylimidazo[1,5-a]pyrido[3,2-e]pyrazin-9-yl)benzonitrile] gave an IC50 of 10 to 100 nM. With `COc1ccc2nc(C)c3c(C)nc(-c4ccc(C#N)cc4)n3c2n1` [Example 74, 4-(2-Methoxy-6,7-dimethylimidazo[1,5-a]pyrido[3,2-e]pyrazin-9-yl)benzonitrile] the IC50 was 10 to 100 nM. With `COc1ccc2nc(C)c3c(C)nc(C#Cc4ccccc4)n3c2n1` [Example 75, 2-Methoxy-6,7-dimethyl-9-(phenylethynyl)imidazo[1,5-a]pyrido[3,2-e]pyrazine] the IC50 was 10 to 100 nM. For `COc1ccc2nc(C)c3c(C)nc(C#Cc4ccc(F)cc4)n3c2n1` [Example 76, 9-[(4-Fluorophenyl)ethynyl]-2-methoxy-6,7-dimethylimidazo[1,5-a]pyrido[3,2-e]pyrazine], the IC50 was greater than 100 nM. `COc1ccc(C#Cc2nc(C)c3c(C)nc4ccc(OC)nc4n23)cc1` [Example 77, 2-Methoxy-9-[(4-methoxyphenyl)ethynyl]-6,7-dimethylimidazo[1,5-a]pyrido[3,2-e]pyrazine] was tested, and the IC50 was 10 to 100 nM. In the case of `COc1ccc2nc(C)c3c(C)nc(-c4cc(C)ccc4Cl)n3c2n1` [Example 78, 9-(2-Chloro-5-methylphenyl)-2-methoxy-6,7-dimethylimidazo[1,5-a]pyrido[3,2-e]pyrazine], the IC50 is reported as less than 10 nM. `COc1ccc2nc(C)c3c(C)nc(-c4cc(Cl)ccc4C)n3c2n1` [Example 79, 9-(5-Chloro-2-methylphenyl)-2-methoxy-6,7-dimethylimidazo[1,5-a]pyrido[3,2-e]pyrazine] gave an IC50 of less than 10 nM. With `COc1ccc2nc(C)c3c(C)nc(-c4ccc(Cl)cc4C)n3c2n1` [Example 80, 9-(4-Chloro-2-methylphenyl)-2-methoxy-6,7-dimethylimidazo[1,5-a]pyrido[3,2-e]pyrazine] the IC50 was less than 10 nM. Work on `COc1ccc2nc(C)c3c(C)nc(-c4cc(F)ccc4C)n3c2n1` [Example 81, 9-(5-Fluoro-2-methylphenyl)-2-methoxy-6,7-dimethylmidazo[1,5-a]pyrido[3,2-e]pyrazine] yielded an IC50 of less than 10 nM. In the case of `COc1ccc2nc(C)c3c(C)nc(-c4ccc(F)cc4C)n3c2n1` [Example 82, 9-(4-Fluoro-2-methylphenyl)-2-methoxy-6,7-dimethylmidazo[1,5-a]pyrido[3,2-e]pyrazine], the IC50 is reported as less than 10 nM. Molecule `COc1ccc2nc(C)c3c(C)nc(-c4cc(F)ccc4OC)n3c2n1` [Example 83, 9-(5-Fluoro-2-methoxyphenyl)-2-methoxy-6,7-dimethylimidazo[1,5-a]pyrido[3,2-e]pyrazine] has an IC50 of 10 to 100 nM. `COc1ccc2nc(C)c3c(C)nc(-c4cc(Cl)ccc4OC)n3c2n1` [Example 84, 9-(5-Chloro-2-methoxyphenyl)-2-methoxy-6,7-dimethylimidazo[1,5-a]pyrido[3,2-e]pyrazine] gave an IC50 of 10 to 100 nM. In the case of `COc1ccc2nc(C)c3c(C)nc(-c4ccc(C(N)=O)cc4)n3c2n1` [Example 85, 4-(2-Methoxy-6,7-dimethylimidazo[1,5-a]pyrido[3,2-e]pyrazin-9-yl)benzamide], the IC50 is reported as less than 10 nM. `COc1ccc2nc(C)c3c(C)nc(-c4ccc(F)cc4OC)n3c2n1` [Example 86, 9-(4-Fluoro-2-methoxyphenyl)-2-methoxy-6,7-dimethylmidazo[1,5-a]pyrido[3,2-e]pyrazine] gave an IC50 of 10 to 100 nM. `COc1ccc2nc(C)c3c(C)nc(-c4cccc(Cl)c4C)n3c2n1` [Example 87, 9-(3-Chloro-2-methylphenyl)-2-methoxy-6,7-dimethylimidazo[1,5-a]pyrido[3,2-e]pyrazine] gave an IC50 of less than 10 nM. `COc1ccc2nc(C)c3c(C)nc(-c4cccc(F)c4C)n3c2n1` [Example 88, 9-(3-Fluoro-2-methylphenyl)-2-methoxy-6,7-dimethylmidazo[1,5-a]pyrido[3,2-e]pyrazine] was tested, and the IC50 was less than 10 nM. `COc1ccc2nc(C)c3c(C)nc(-c4cccc(Cl)c4Cl)n3c2n1` [Example 89, 9-(2,3-dichlorophenyl)-2-methoxy-6,7-dimethylimidazo[1,5-a]pyrido[3,2-e]pyrazine] was tested, and the IC50 was less than 10 nM. In the case of `COc1ccc2nc(C)c3c(C)nc(-c4ccc(Cl)cc4OC)n3c2n1` [Example 90, 9-(4-Chloro-2-methoxyphenyl)-2-methoxy-6,7-dimethylimidazo[1,5-a]pyrido[3,2-e]pyrazine], the IC50 is reported as 10 to 100 nM. `COc1ccc2nc(C)c3c(C)nc(-c4ccc(Cl)cc4C(F)(F)F)n3c2n1` [Example 91, 9-[4-Chloro-2-(trifluoromethyl)phenyl]-2-methoxy-6,7-dimethylimidazo[1,5-a]pyrido[3,2-e]pyrazine] gave an IC50 of less than 10 nM. With `COc1ccc2nc(C)c3c(C)nc(-c4ccc(Cl)s4)n3c2n1` [Example 92, 9-(5-Chloro-2-thienyl)-2-methoxy-6,7-dimethylimidazo[1,5-a]pyrido[3,2-e]pyrazine] the IC50 was 10 to 100 nM. `COc1ccc2nc(C)c3c(C)nc(-c4cccc(C(N)=O)c4)n3c2n1` [Example 93, 3-(2-Methoxy-6,7-dimethylimidazo[1,5-a]pyrido[3,2-e]pyrazin-9-yl)benzamide] showed an IC50 of less than 10 nM. Work on `COc1cccc(C#Cc2nc(C)c3c(C)nc4ccc(OC)nc4n23)c1` [Example 94, 2-Methoxy-9-[(3-methoxyphenyl)ethynyl]-6,7-dimethylimidazo[1,5-a]pyrido[3,2-e]pyrazine] yielded an IC50 greater than 100 nM. `COc1ccc2nc(C)c3c(C)nc(C#CC4CCCCC4)n3c2n1` [Example 95, 9-(Cyclohexylethynyl)-2-methoxy-6,7-dimethylimidazo[1,5-a]pyrido[3,2-e]pyrazine] gave an IC50 greater than 100 nM.
